# Assay results: patent publication US7691416B2, “Methods of treating vascular disease” (priority 2002, dated 2010)
# Assays:
# [1] = test system: ERK-1 and -2; assay: Western blot of phosphorylated ERK in SMC; assay type: cell-based; conditions: SMC exposed to CO (250 ppm)
# Excerpt: (§1) Animals. Male (250-350 g) Brown Norway rats (RT1^n) were used as aortic graft donors and male (250-350 g) Lewis rats (RT11) as recipients. Dawley (400-450 g) rats were used in the balloon injury model. Adult male C57BL/6, C57/S129, p21^−/− and p53^−/− null mice were purchased from Jackson Laboratory (Bar Harbor, Me.). mkk3^(−/−) null mice were generated as described Lu et al. (EMBO. 18:1845-1857 (1999)). The inos^−/− and enos^−/− mice were bred at the University of Pittsburgh. Aortic transplant model. Aortic transplantation was performed as described in Shimizu et al. (Nat. Med. 7:738-741 (2001)). Briefly, 3 to 4 cm of descending aorta was harvested from the donor and implanted between the renal arteries and the aortic bifurcation of the recipient. Both edges of the native abdominal aorta were ligated. Balloon injury model. Balloon angioplasty was carried out as described in Murakami et al. (Atherosclerosis 157:361-368 (2001)). […] [^3H]thymidine incorporation was measured by scintillation spectroscopy and presented as mean counts/min/well. […] Areas from eight to ten captured images were calculated using digital imaging software as number of pixels corresponding to those areas. Twenty-four to forty-eight sections from each group were statistically analyzed with SPSS software version 10. […]
# [2] = test system: JNK-1 and -2; assay: Western blot of phosphorylated JNK in SMC; assay type: cell-based; conditions: SMC exposed to CO (250 ppm)
# Excerpt: as §1
# [3] = test system: ATF-2; assay: Western blot of phosphorylated ATF-2 in SMC; assay type: cell-based; conditions: SMC exposed to CO (250 ppm)
# Excerpt: as §1
# [4] = test system: mouse SMC; assay: SMC proliferation, [3H]thymidine incorporation; assay type: cell-based; conditions: for SMC proliferation / Inhibition of SMC proliferation versus air treated controls: CO 250 ppm
# Excerpt: (§2) Animals. Male (250-350 g) Brown Norway rats (RT1^n) were used as aortic graft donors and male (250-350 g) Lewis rats (RT11) as recipients. Dawley (400-450 g) rats were used in the balloon injury model. Adult male C57BL/6, C57/S129, p21^−/− and p53^−/− null mice were purchased from Jackson Laboratory (Bar Harbor, Me.). mkk3^(−/−) null mice were generated as described Lu et al. (EMBO. 18:1845-1857 (1999)). The inos^−/− and enos^−/− mice were bred at the University of Pittsburgh. Aortic transplant model. Aortic transplantation was performed as described in Shimizu et al. (Nat. Med. 7:738-741 (2001)). Briefly, 3 to 4 cm of descending aorta was harvested from the donor and implanted between the renal arteries and the aortic bifurcation of the recipient. Both edges of the native abdominal aorta were ligated. Balloon injury model. Balloon angioplasty was carried out as described in Murakami et al. (Atherosclerosis 157:361-368 (2001)). Briefly, a 2 Fr. arterial embolectomy catheter (Baxter, Chicago, Ill.) was inserted into the common carotid artery, and injury was created by inflating the balloon to 5 atmospheres of pressure for 5 minutes. The arteries were flushed and the external carotid artery was ligated, ensuring return of blood flow through the common and internal carotid arteries. Injury of the vessel wall and subsequent pathological analysis was made in a manner that was blinded to the treatment group. CO exposure. CO was delivered to animals as described in Otterbein et al. (Nat. Med. 6:422-428 (2000)). Graft donors and recipients were exposed to CO (250 ppm) for two days before transplantation and for 56 days immediately following transplantation. In the balloon injury model, rats received either no pretreatment or were exposed to CO (250 ppm) for one hour prior to injury. Following surgery rats were housed in room air for two weeks. Cells. Primary mouse and rat smooth muscle cells (SMC) were isolated and cultured as described in Laubach et al. (Proc Natl Acad Sci USA 92:10688-9 (1995)). Mouse SMC isolated from HO-1^−/− mice were obtained as described in Duckers et al. (Nat. Med. 7:693-698 (2001)). Cell treatment and reagents. Guanylate cyclase inhibitor 1H(1,2,4) oxadiazolo(4,3-a)quinoxalin-1 (ODQ; Calbiochem-Novabiochem, San Diego, Calif.; 10-100 μM) and p38 MAPK inhibitor pyridinyl imidazol SB203580 (Calbiochem; 5-20 μM) were dissolved in DMSO. The cGMP analogue 8-bromo-cGMP sodium salt (8-Br-cGMP; Sigma-Aldrich, St. Louis, Mo.; 10-100 μM) and the PKG inhibitor (10-100 μM; Alexis Biochemicals) were dissolved in water. Cell counts and [^3H] thymidine incorporation. Rat and mouse SMC were isolated and cultured as described in Peyton et al. (Blood 99:4443-4448 (2002)). Proliferation assays were carried out as described in Petkova et al. (J Biol. Chem. 276:7932-7936 (2001)). For [^3H] thymidine incorporation studies, cells were serum-starved overnight and then stimulated with 10% serum containing 5 μCi/ml [^3H] thymidine (New England Nuclear, Boston Mass.). [^3H]thymidine incorporation was measured by scintillation spectroscopy and presented as mean counts/min/well. Histomorphometric analysis. Aortic grafts and carotid arteries were harvested at 56 and 14 days respectively. Vessels were fixed, embedded, and serially sectioned (5μ) in toto. Every third slide was stained with Hematoxylin and Eosin (H&E) for histomorphometric analyses. In both models, one or two images per slide at a resolution of 1520×1080 pixels were captured at a magnification of 25× with a Zeiss microscope (Axioskop, Iowa City, Iowa), RT color SPOT (Diagnostic Instrument, Inc., Saint Joseph, Mich.) and Windows NT (Compaq Computer) using Adobe Photoshop version 5.5 software. Areas from eight to ten captured images were calculated using digital imaging software as number of pixels corresponding to those areas. Twenty-four to forty-eight sections from each group were statistically analyzed with SPSS software version 10. Immunostaining and cell population histomorphometric analysis. […]
# [5] = test system: cGMP; assay: cGMP immunoassay (EIA) of SMC lysates; assay type: cell-based, mouse; conditions: CO 250 ppm for 8 h or 16 h
# Excerpt: as §1
# [6] = test system: p38 MAPK; assay: Western blot of phosphorylated p38 MAPK in SMC; assay type: cell-based, mouse
# Excerpt: as §2, with “The cGMP analogue 8-bromo-cGMP sodium salt (8-Br-cGMP; Sigma-Aldrich, St. Louis, Mo.; 10-100 μM) and the PKG inhibitor (10-100 μM; Alexis Biochemicals) were dissolved in water. Cell counts and [^3H] thymidine incorporation. Rat and mouse SMC were isolated and cultured as described in Peyton et al. (Blood 99:4443-4448 (2002)). Proliferation assays were carried out as described in Petkova et al. (J Biol. Chem. 276:7932-7936 (2001)). For [^3H] thymidine incorporation studies, cells were serum-starved overnight and then stimulated with 10% serum containing 5 μCi/ml [^3H] thymidine (New England Nuclear, Boston Mass.).” left out, “Histomorphometric analysis. Aortic grafts and carotid arteries were harvested at 56 and 14 days respectively. Vessels were fixed, embedded, and serially sectioned (5μ) in toto. Every third slide was stained with Hematoxylin and Eosin (H&E) for histomorphometric analyses. In both models, one or two images per slide at a resolution of 1520×1080 pixels were captured at a magnification of 25× with a Zeiss microscope (Axioskop, Iowa City, Iowa), RT color SPOT (Diagnostic Instrument, Inc., Saint Joseph, Mich.) and Windows NT (Compaq Computer) using Adobe Photoshop version 5.5 software.” left out, “10.” for “10. Immunostaining and cell population histomorphometric analysis.”
# [7] = test system: iNOS and eNOS; assay: Western blot of NOS isoforms in SMC; assay type: cell-based, mouse; conditions: CO 250 or 10,000 ppm, varying amounts of time
# Excerpt: as §1
smiles,measurement,setting,value
"[C-]#[O+] [CO, carbon monoxide]",Activation of ERK-1 and -2,[1],did not modulate
same,Activation of JNK-1 and -2,[2],induced activation
same,ATF-2 activation,[3],activation
same,SMC proliferation,[4]; SMC from ho-1-/- mice,significantly inhibited
same,Inhibition of SMC proliferation versus air treated controls,[4]; SMC from nos-2-/- (iNOS) mice,51±25%
same,Inhibition of SMC proliferation versus air treated controls,[4]; SMC from nos-3-/- (eNOS) mice,54±11%
same,SMC proliferation,[4]; SMC from p21Cip1 deficient mice (p21-/-),not suppressed
same,SMC proliferation,"[4]; SMC from p53-/- mice, similar extent as wild type",inhibited proliferation
same,Inhibition of SMC proliferation versus air treated controls,[4]; SMC from wild type mice,51±12.9%
same,Cell proliferation,[4]; cells from mkk3-/- mice exposed to CO,did not inhibit proliferation
same,Intracellular cGMP levels,[5],increased
same,Time of peak p38 MAPK phosphorylation/activation after exposure,[6]; CO 250 ppm,four
same,p38 MAPK phosphorylation/activation,[6]; SMC exposed to CO (250 ppm),activated
same,Induction of NOS isoforms,[7],no induction
